The source of these data is PubChem BioAssay AID488890 (Southern Research Specialized Biocontainment Screening …, 2010).

The assay concerns Mycobacterium tuberculosis non-replicating, growth inhibition. Description: growth inhibition of non-replicating M. tuberculosis (AID 488890).

Structures are written as SMILES. Records with an inconclusive call do not appear. Active and inactive are the calls of the source. How the calls were made is not given here.

With `O=[N+]([O-])c1cc(-c2nc(-c3ccncc3)no2)cc([N+](=O)[O-])c1`, the half-maximal inhibitory concentration (IC50) is 1.59 µM.

Consider `CCc1c(C)c2ccc(OCC(=O)OC)cc2oc1=O`, for which the half-maximal inhibitory concentration (IC50) was 9.03 µM. On to `O=c1cc(C(F)(F)F)[nH]c2c(C(F)(F)F)cccc12`, for which the IC50 is 5.78 µM. Regarding `CCOC(=O)COc1ccc2c(=O)cc(-c3ccccc3)oc2c1`, the half-inhibitory concentration (IC50) is 0.83 µM.

As to `CCCCN(C/C=C/c1ccccc1OC)Cc1ccccc1`, the half-maximal inhibitory concentration (IC50) was 8.78 µM. Under `O=C(N/N=C/c1ccc([N+](=O)[O-])s1)c1cccnc1` stands 4.48 µM. Take `CN(C)CCOc1nc(-c2ccccc2)nc2c1oc1ccccc12`: the IC50 was 14.3 µM (inactive).

For `O=c1c(=Nc2ccccc2O)c(=O)c2ccccc12`, the IC50 is 2.73 µM. Regarding `CCOC(=O)Cn1c(C)c(Br)c(=O)c2cccc(C)c21`, the IC50 is 3.76 µM. The same measure for `C/C(=N\Nc1nc2ccccc2[nH]1)c1ccc(N2CCOCC2)cc1`: 10.5 µM (inactive); for `O=C(N/N=C\C=C\c1ccco1)c1cncc(Br)c1`: 34.4 µM (inactive); for `CC(C)(C)c1cc(CN2CCC(O)CC2)cc(C(C)(C)C)c1O`: 6.92 µM. With `O=C(COC(=O)CC12CC3CC(CC(C3)C1)C2)Nc1cccnc1Cl`, the IC50 was 15.2 µM (inactive).

For the compound `Cc1cccc(N2CCN(C(=O)Cn3sc4nc(C)cc(C)c4c3=O)CC2C)c1` (configuration not stated), the IC50 was 2.7 µM. The same measure for `O=C(c1cccc2cccc(O)c12)N1CCCCC1`: 3.82 µM; for `CCOC(=O)COc1ccc2c(=O)c(-c3ccccc3OC)coc2c1`: 2.28 µM; for `CC(NC(=O)c1cc2ccccc2oc1=O)c1ccccc1` (configuration not stated): 0.86 µM. Consider `O=C1CCCCC1Sc1nnc(-c2ccc3c(c2)OCO3)o1` (configuration not stated), for which the IC50 is 1.83 µM. Regarding `O=C(COC(=O)C1CC2C=CC1C2)Nc1ccccc1` (configuration not stated), the IC50 is 35.7 µM (inactive). For the compound `COc1ccc2cc(C(=O)NCc3ccccc3)c(=O)oc2c1`, the IC50 is 39.3 µM (inactive).

Turning to `CCOC(=O)CCCNC(=O)COC(=O)c1cc(Br)c(Br)s1`, the IC50 was 9.34 µM. The same measure for `Cc1cccc(NC(=O)c2ccc(OC3CSC3)cc2)c1`: 28.7 µM (inactive). As to `c1ccc(-c2ccccc2OCCCCn2ccnc2)cc1`, the IC50 is 33.5 µM (inactive). Under `COc1cccc(NC(=O)COC(=O)Cc2ccc(Br)cc2)c1` stands 12.7 µM (inactive); under `Cc1ccc(Oc2c(C(N)=O)cc([N+](=O)[O-])cc2[N+](=O)[O-])cc1`, 2.2 µM; under `OC(CNCC1CCCO1)Cn1c2ccc(Cl)cc2c2cc(Cl)ccc21` (configuration not stated), 8.38 µM. Under `CC1CCN(CCOCCSc2ccc(Cl)cc2)CC1` stands 19.7 µM (inactive); under `Cn1[nH]c(-c2ccccc2)c(/C=N/O)c1=O`, 8.99 µM; under `COC(=O)c1ccccc1Sc1ncnc2onc(C)c12`, 6.54 µM. Under `CC1(C)CC(=O)C(C2NCCc3ccccc32)=C(O)C1` (configuration not stated) stands 30.8 µM (inactive); under `COc1cc(C(=O)CCN2CCC(c3ccccc3)C2)cc(OC)c1OC` (configuration not stated), 6.41 µM; under `CCOc1cc(C=O)cc(N=Nc2cccc([N+](=O)[O-])c2)c1O`, 1.31 µM.

Turning to `COC(=O)CCC(=O)Nc1sc(Cc2ccccc2)c(C)c1C(N)=O`, the IC50 was 13.6 µM (inactive). For `CCOC(=O)COc1ccc2c(c1)c(C(C)=O)c(C)n2Cc1ccccc1`, the half-maximal inhibitory concentration (IC50) was 4.62 µM. Consider `Cc1ccc(C(=O)n2c(N)nc3ccccc32)cc1`, for which the IC50 was 16.6 µM (inactive). For the compound `CC(=O)Oc1ccc(N(C(C)=O)S(=O)(=O)c2cccs2)c2ccccc12`, the IC50 was 11.6 µM (inactive). Under `C=CCn1c(C)cc(C2=NNC(=NCc3ccccc3)SC2)c1C` stands 7.71 µM; under `O=C(COc1ccccc1)Nc1nnc(-c2ccc3c(c2)CCCC3)o1`, 0.9 µM. Take `Cc1ccc(C(=O)N/N=C/C=C/c2ccccc2)cc1`: the half-maximal inhibitory concentration (IC50) is 3.77 µM. Take `CN(CC(=O)Nc1ccc(C#N)cc1)Cc1ccc(Cl)c(Cl)c1`: the IC50 is 12.9 µM (inactive). The same measure for `CN(C)CC(C(=O)c1ccccc1)c1ccccc1` (configuration not stated): 2.83 µM.

For `COc1ccc(C(CCNCc2ccc(OC(C)C)cc2)C(C)C)cc1` (configuration not stated), the IC50 was 10.2 µM (inactive). As to `Cc1c(CN2CCC(CO)(CCOc3ccccc3)CC2)[nH]c2ccc(Cl)cc12`, the IC50 is 15.9 µM (inactive). With `CN(C)c1ccc(/C=C2\N=C(C(C)(C)C)OC2=O)cc1`, the IC50 was 9.11 µM. `COc1ccc(OC(=O)C2CC(=O)N(c3ccc(C)cc3)C2)cc1` (configuration not stated): the concentration for half-maximal inhibition (IC50) is 9.65 µM. Take `CC1N(C)c2cccc3cccc(c23)N1C`: the IC50 was 36.8 µM (inactive). Take `COc1ccc(C(=O)Nc2nnc(C3=COCCO3)o2)cc1`: the IC50 is 7.69 µM. Consider `COc1ccc(/C=C/c2cc(-c3ccc(C)cc3)o[n+]2C)cc1`, for which the 50% inhibitory concentration (IC50) was 4.7 µM. With `CCCn1c(CNc2ccccc2O)nc2ccccc21`, the half-inhibitory concentration (IC50) is 3.3 µM. The same measure for `CC1=C(/C=C/C(C)=N\NC(=O)c2ccncc2)C(C)(C)CCC1`: 1.15 µM; for `Cc1ccccc1NC(=O)c1nc[nH]c1C(=O)NCc1ccccc1`: 23.7 µM (inactive); for `CCS(=O)(=O)c1c([N+](=O)[O-])ncn1C`: 19.5 µM (inactive). The same measure for `O=C(CCNc1ccc(F)cc1)c1ccco1`: 6.12 µM. As to `Cc1cccc(C2=N/C(=C\c3cccnc3)C(=O)O2)c1`, the IC50 is 12.8 µM (inactive).

Regarding `Cc1onc(-c2ccccc2)c1C(=O)Nc1nnc(COc2ccc(Cl)cc2)s1`, the half-inhibitory concentration (IC50) is 8.2 µM.

In the case of `COc1cccc2sc(Nc3nnc(-c4cccs4)o3)nc12`, the half-inhibitory concentration (IC50) is 4.87 µM. The same measure for `Cc1c(C(=O)NNC(=O)c2csc(N3CCOCC3)n2)oc2ccccc12`: 7.63 µM; for `CC1=NN(C(=O)c2ccoc2C)C(O)(C(F)(F)F)C1` (configuration not stated): 1.63 µM; for `C=CCn1c(=O)c(C(=O)Nc2cccnc2)c(O)c2ccccc21`: 7.58 µM. Consider `c1ccc(-c2cccc(-c3ccccn3)n2)nc1`, for which the IC50 is 19.7 µM (inactive). In the case of `Cn1c(=O)c(Oc2ccc(F)cc2)c(O)c2ccccc21`, the IC50 was 8.27 µM. The same measure for `Clc1ccc(-c2ccc(CNCc3ccccn3)o2)cc1`: 0.77 µM. The same measure for `CC(/C=C/c1ccco1)=N/NC(=O)c1ccc(C)nc1`: 13.4 µM (inactive); for `Cc1ccn2c(Nc3ccccc3)c(-c3ccccn3)nc2c1`: 10.4 µM (inactive); for `Cc1ccc(NC(=O)C2CC2c2ccccc2)cc1` (configuration not stated): 15 µM (inactive).

Consider `O=C(CN1CCCCC1)Nc1nnc(-c2ccc([N+](=O)[O-])cc2)s1`, for which the IC50 was 11.7 µM (inactive). For the compound `CCOCC(=O)Nc1ccc(C)c(Cl)c1`, the concentration for half-maximal inhibition (IC50) was 5.63 µM.

With `COc1ccccc1/C=N\Nc1cc(C)nc(-n2nc(C)cc2C)n1`, the half-maximal inhibitory concentration (IC50) was 1.77 µM. With `O=C(COc1ccc(Nc2ccccc2)cc1)OCC(=O)N1CCCCC1`, the concentration for half-maximal inhibition (IC50) was 6.24 µM. The same measure for `CCCn1nnnc1NC(=O)c1ccc2ccccc2c1`: 3.46 µM.

With `O=Cc1ccc(-c2ccc(Cl)cc2Cl)[nH]1`, the IC50 is 17.3 µM (inactive). Under `COc1ccc(N2C(=O)NC(=O)/C(=C/c3ccc([N+](=O)[O-])s3)C2=O)cc1` stands 16.1 µM (inactive); under `O=C1CC(N2CCN(Cc3ccccc3)CC2)C(=O)N1CCc1ccccc1` (configuration not stated), 22.3 µM (inactive); under `Cc1cccc(NC(=O)COC(=O)c2cc3ccccc3oc2=O)c1`, 14.2 µM (inactive). Regarding `CCOc1ccc(OCc2ccc(C(=O)OCc3ccccn3)o2)cc1`, the IC50 is 8.49 µM. `COc1cc(OC)cc(OC(=O)c2ccc3c(=O)n4c(nc3c2)CCC4)c1`: the IC50 is 4.95 µM. The same measure for `CC1(c2nnc(-c3ccccc3)o2)CC(c2ccc(Cl)cc2)=NO1` (configuration not stated): 1.52 µM. Regarding `CCN(CC)c1ccc2c(c1)oc(=O)c1c(Cl)cc(=O)oc12`, the IC50 is 3.7 µM. Under `O=C(Nc1ncc(Cc2ccccc2)s1)C1=NCCN1` stands 9.49 µM.

Turning to `Cc1ccccc1C(=O)NNc1ccc([N+](=O)[O-])cc1`, the IC50 was 20.4 µM (inactive).

`Cc1ccc(OCC(=O)N/N=C/c2ccc([N+](=O)[O-])o2)cc1`: the IC50 was 2.89 µM.

On to `COc1ccc(C(=O)CCNc2ccc(F)cc2)cc1`, for which the IC50 is 5.22 µM. Under `CCn1c(O)c(C(=O)CC2NCCc3ccccc32)c(=O)n(CC)c1=S` (configuration not stated) stands 21.8 µM (inactive); under `COC(=O)COc1ccc2c(-c3cccc([N+](=O)[O-])c3)cc(=O)oc2c1`, 1.84 µM; under `Cn1ccsc1=NC(=O)c1ccccc1F`, 22.4 µM (inactive). Under `O=C(NNC(=O)c1cnccn1)c1ccc(Cl)c(Cl)c1` stands 3.23 µM. The same measure for `CCC(=O)Nc1ccc(C(=O)NNC(=O)c2cc([N+](=O)[O-])cc([N+](=O)[O-])c2)cc1`: 12.9 µM (inactive); for `Cc1ccc(N=Nc2c(C)[nH]n(C(N)=S)c2=O)cc1C`: 0.57 µM; for `c1ccc(Nc2nc(-c3ccccn3)cs2)cc1`: 2.66 µM. For the compound `CC1=NN(C(=O)COc2ccccc2)C(O)(c2ccccc2)C1` (configuration not stated), the IC50 is 1.36 µM. The same measure for `CCn1c2ccccc2c2cc(CNCc3ccc(OC)cc3OC)ccc21`: 7.41 µM; for `CCc1ccc(NC(=O)C(=O)NNC(=O)c2cccc(OC)c2)cc1`: 1.06 µM.

On to `CCCN1C(=O)S/C(=C\c2ccc(N3CCOCC3)o2)C1=O`, for which the IC50 is 25.2 µM (inactive). The same measure for `CSc1ccc(COC(=O)CCS(=O)(=O)c2ccc(C)cc2)cc1`: 19.2 µM (inactive); for `CC(C)(C)c1ccccc1OCCOCCN1CCCCCC1`: 16.2 µM (inactive); for `O=C(O)COc1ccc2occ(C(=O)c3ccccc3)c2c1`: 6.46 µM. The same measure for `Nc1ncnc(Oc2cccc3cccnc23)c1[N+](=O)[O-]`: 4.36 µM; for `COc1ccc(NC(=O)c2cc3ccccc3o2)cc1`: 5.57 µM. Under `N#CC(C(=O)Nc1ccccc1)=C1Nc2ccccc2N1` stands 37.8 µM (inactive); under `CCCCCCC1CC(C)(C(=O)CNc2nncs2)OC1=O` (configuration not stated), 20.3 µM (inactive). `Cc1cc(C(=O)N/N=C/c2cccc(Cl)c2Cl)no1`: the half-inhibitory concentration (IC50) is 1.01 µM. Under `Cc1ccc(C(=O)CCNc2ccc(Br)cc2)o1` stands 1.84 µM.

The term IC50 denotes the concentration that inhibits the measured activity by half.
